Here are results for 20 molecules from patent publication US10723754B2, “2′,4′-bridged nucleosides for HCV infection” (IDENIX PHARMACEUTICALS LLC, priority 2012, dated 2020).

Molecules are shown by their SMILES. Like-named read-outs stand apart in the source and are kept apart here. Some results are limits rather than exact numbers.

Data set [1] deals with T1, HCV genotype 1b NS5B protein containing the S282T mutation (Hepatitis C virus genotype 1b, UniProt Q9WMX2, S2701T).
T1 construct: approximately 65 kDa HCV genotype 1b NS5B protein; made in house
The data set can be described thus: HCV polymerase enzyme assay, S282T 1b. The data set is classed as biochemical. The source says:
(§1) Test compounds in the form of nucleoside triphosphates were examined for inhibitory activity against purified HCV polymerase in a standard assay. Bacterial expression constructs encoding the approximately 65 kDa HCV genotype 1b NS5B protein were used to generate recombinant HCV polymerases (with a deletion of the 21 carboxy terminal amino acids). The wild-type genotype 1b protein, genotype 1b protein containing the S282T mutation, wild-type genotype 1a protein, wild-type genotype 2a protein, wild-type genotype 3a protein and wild-type genotype 4a protein were expressed and purified for use in the enzymatic activity assay.
(§2) The enzymatic activity assay measured the inhibitory effect of increasing concentrations of test compound on the incorporation of α-[^33P]-labeled nucleotide into trichloroacetic acid-precipitable material. Recombinant polymerase and synthetic RNA template were combined in reaction buffer containing ribonucleoside triphosphates, α-[^33P]-labeled nucleotide and eight concentrations of test compound in three-fold dilutions. Reactions were incubated for two hours at 30° C.
(§3) Reactions were terminated by the addition of ice-cold trichloroacetic acid and sodium pyrophosphate to promote precipitation of newly-synthesized ribonucleic acid. Precipitable material from the reactions was collected by filtration onto 96-well filter plates, washed extensively with water, and quantified by liquid scintillation.
(§4) The inhibitory activity of test compounds was determined by fitting results to dose-response curves using XLfit software.

In data set [2] the target is T2, HCV wild-type genotype 1b NS5B protein (Hepatitis C virus genotype 1b, UniProt Q9WMX2).
T2 construct: approximately 65 kDa HCV genotype 1b NS5B protein; made in house
Description: HCV polymerase enzyme assay, wild-type 1b. Type of data set: biochemical.
Description: as §1, §2, §3, §4

Data set [3] relates to HCV genotype 1b replicon in Huh-7-derived cell line (Zluc). The data set can be described thus: HCV replicon assay (luciferase reporter). Type of data set: cell-based. Particulars: Hepatitis C virus, Zluc cells, 72 hours of incubation. As for the experimental part:
Huh-7-derived cell line (Zluc) that harbors an HCV genotype 1b replicon and a luciferase reporter gene was grown in Dulbecco's Modified Eagle Medium (DMEM) supplemented with 10% fetal bovine serum, 2 mM GlutaMAX, 1% MEM nonessential amino acids, 100 IU/mL penicillin, 100 μg/mL streptomycin, and 0.5 mg/mL Geneticin® (G418). For dose response testing the cells were seeded in 96-well plates at 7.5×10^3 cells per well in a volume of 50 μL, and incubated at 37° C./5% CO2. Drug solutions were made up freshly in Huh-7 media as 2× stocks. Ten additional 5-fold dilutions were prepared from these stocks in DMEM without G418. At least three hours after Zluc cells were seeded, drug treatment was initiated by adding 50 μL of drug dilutions to the plates in duplicate. Final concentrations of drug ranged from 100 μM to […]. Cells were then incubated at 37° C./5% CO2. Alternatively, compounds were tested at two concentrations (1 μM and 10 μM). […] For this, media was removed from the plates via gentle tapping. Fifty microliters of ONE-glo luciferase assay reagent was added to each well. The plates were shaken gently for 3 min at room temperature and luminescence was measured on a Victor^3 V 1420 multilabel counter (Perkin Elmer) with a 1 second read time using a 700 nm cut-off filter. The EC50 values were calculated from dose response curves from the resulting best-fit equations determined by Microsoft Excel and XLfit 4.1 software. When screening at two fixed concentrations, the results were expressed as % inhibition at 1 μM and 10 μM.

A short description of data set [4]: Cytotoxicity evaluation (CellTiter-Blue Cell Viability Assay). Particulars: human. On the technique in general: Resazurin is reduced to fluorescent resorufin, in cell work by metabolically active cells.
The next data set can be described thus: in vitro. Particulars: human.
Data set [5] has as its target T3, HCV polymerase wild-type genotype 1a protein (Hepatitis C virus genotype 1a, UniProt P27958).
T3 construct: used to generate recombinant HCV polymerases; made in house
The data set can be described thus: HCV polymerase enzyme assay, wild-type 1a. The data set is classed as biochemical.
Description: as §1
(§5) The enzymatic activity assay measured the inhibitory effect of increasing concentrations of test compound on the incorporation of α-[^33P]-labeled nucleotide into trichloroacetic acid-precipitable material. […]
as §3, §4

Data set [6] has as its target T4, HCV polymerase wild-type genotype 3a protein (Hepatitis C virus genotype 3a, UniProt Q81258).
T4 construct: used to generate recombinant HCV polymerases; made in house
Description: HCV polymerase enzyme assay, wild-type 3a. Type of data set: biochemical. Particulars: purified recombinant polymerase; compounds as nucleoside triphosphates.
Description: as §1, §5, §3, §4

Data set [7] deals with T5, HCV polymerase wild-type genotype 2a protein (Hepatitis C virus genotype 2a, UniProt Q99IB8).
T5 construct: used to generate recombinant HCV polymerases; made in house
The data set can be described thus: HCV polymerase enzyme assay, wild-type 2a. Type of data set: biochemical. Particulars: purified recombinant polymerase; compounds as nucleoside triphosphates.
Description: as §1, §5, §3, §4

Data set [8] addresses T6, HCV polymerase wild-type genotype 4a protein (Hepatitis C virus genotype 4a, UniProt O39929).
T6 construct: used to generate recombinant HCV polymerases; made in house
Description: HCV polymerase enzyme assay, wild-type 4a. Particulars: purified recombinant polymerase; compounds as nucleoside triphosphates. Type of data set: biochemical.
Description: as §1, §5, §3, §4

Where [9] appears, read: purified recombinant polymerase, compounds as nucleoside triphosphates, read-out: S282T 1b IC50.

T3 sequence (P27958 2421-2990): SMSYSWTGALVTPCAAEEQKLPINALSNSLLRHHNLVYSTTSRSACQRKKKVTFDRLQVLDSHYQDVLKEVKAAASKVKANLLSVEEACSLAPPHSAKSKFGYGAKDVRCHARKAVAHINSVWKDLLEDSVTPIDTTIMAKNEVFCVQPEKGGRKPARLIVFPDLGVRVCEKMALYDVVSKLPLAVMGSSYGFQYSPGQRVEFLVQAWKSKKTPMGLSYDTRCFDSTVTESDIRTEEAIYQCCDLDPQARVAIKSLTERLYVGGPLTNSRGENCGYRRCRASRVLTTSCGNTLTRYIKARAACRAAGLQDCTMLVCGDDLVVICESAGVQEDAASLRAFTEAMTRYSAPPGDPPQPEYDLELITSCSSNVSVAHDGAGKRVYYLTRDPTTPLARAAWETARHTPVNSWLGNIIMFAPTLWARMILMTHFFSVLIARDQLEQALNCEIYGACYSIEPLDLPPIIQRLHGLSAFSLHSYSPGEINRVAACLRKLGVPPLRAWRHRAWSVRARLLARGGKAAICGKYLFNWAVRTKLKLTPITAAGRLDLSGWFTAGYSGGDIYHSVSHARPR
T6 sequence (O39929 2418-2987): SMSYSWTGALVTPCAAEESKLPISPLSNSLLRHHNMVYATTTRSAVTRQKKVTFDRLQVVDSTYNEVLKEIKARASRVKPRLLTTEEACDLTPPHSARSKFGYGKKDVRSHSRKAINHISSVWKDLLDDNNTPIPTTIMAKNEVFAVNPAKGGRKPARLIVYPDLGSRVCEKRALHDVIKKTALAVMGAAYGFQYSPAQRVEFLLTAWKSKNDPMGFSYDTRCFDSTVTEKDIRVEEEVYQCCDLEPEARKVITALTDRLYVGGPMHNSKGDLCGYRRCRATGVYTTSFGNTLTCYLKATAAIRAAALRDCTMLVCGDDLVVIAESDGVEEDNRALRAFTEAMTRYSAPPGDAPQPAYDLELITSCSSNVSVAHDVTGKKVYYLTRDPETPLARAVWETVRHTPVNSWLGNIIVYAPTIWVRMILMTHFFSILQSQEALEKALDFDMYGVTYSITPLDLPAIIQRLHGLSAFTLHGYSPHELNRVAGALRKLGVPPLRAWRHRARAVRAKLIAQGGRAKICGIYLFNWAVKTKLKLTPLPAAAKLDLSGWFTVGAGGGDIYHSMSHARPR
T4 sequence (Q81258 2431-3000): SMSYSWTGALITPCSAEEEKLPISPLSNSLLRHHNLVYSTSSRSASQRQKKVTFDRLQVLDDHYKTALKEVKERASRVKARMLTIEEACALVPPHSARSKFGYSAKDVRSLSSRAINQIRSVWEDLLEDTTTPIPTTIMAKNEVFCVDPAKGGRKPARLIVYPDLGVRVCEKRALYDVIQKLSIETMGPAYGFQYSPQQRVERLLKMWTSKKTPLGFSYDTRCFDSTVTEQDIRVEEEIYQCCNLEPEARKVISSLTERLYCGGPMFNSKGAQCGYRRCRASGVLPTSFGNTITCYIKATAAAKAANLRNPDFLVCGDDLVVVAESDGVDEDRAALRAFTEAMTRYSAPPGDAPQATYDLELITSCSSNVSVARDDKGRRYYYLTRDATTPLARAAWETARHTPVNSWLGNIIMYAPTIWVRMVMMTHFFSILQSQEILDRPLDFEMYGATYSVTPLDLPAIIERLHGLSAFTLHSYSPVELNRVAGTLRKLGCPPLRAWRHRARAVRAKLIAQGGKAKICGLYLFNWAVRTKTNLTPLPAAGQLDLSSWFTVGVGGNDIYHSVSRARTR

As a reminder, the IC50 is the concentration at which inhibition is half-maximal. As for `CC(OP(=O)(O)OP(=O)(O)OP(=O)(O)O)C12COC(C(n3cnc4c(=O)[nH]c(N)nc43)O1)C2O` (single isomer, unassigned) [Compound 102 Diastereomer 1], the IC50 in data set [1] (setting [9]) is above 10 µM.
In the case of `CC(OP(=O)(O)OP(=O)(O)OP(=O)(O)O)C12COC(C(n3cnc4c(=O)[nH]c(N)nc43)O1)C2O` (single isomer, unassigned) [Compound 102 Diastereomer 2], the IC50 in data set [2] and in data set [1] (setting [9]) was above 10 µM each time.
Take `CCOc1nc(N)nc2c1ncn2[C@@H]1O[C@@]2(COP(=O)(N[C@@H](C)C(=O)OC(C)C)Oc3ccccc3)CO[C@@H]1[C@@H]2O` (some centres unmarked) [Compound 25]: the half-inhibitory concentration (IC50) in data set [2] and in data set [1] was 0.25 to 1 µM each time.
One may read the EC50 as the midpoint of the concentration-response curve. Turning to `[N-]=[N+]=N[C@H]1[C@H]2OC[C@]1(CO)O[C@H]2n1ccc(=O)[nH]c1=O` [Compound 33], the EC50 in data set [3] is above 10 µM. Besides, in data set [4], the CC50 at 72 h was above 50 µM.
In the same order, the values of `CC(=O)N[C@H]1[C@H]2OC[C@]1(CO)O[C@H]2n1ccc(=O)[nH]c1=O` [Compound 35] are above 10 µM and above 50 µM.
Taken in the same sequence, the figures for `CS(=O)(=O)N[C@H]1[C@H]2OC[C@]1(CO)O[C@H]2n1ccc(=O)[nH]c1=O` [Compound 36] were above 10 µM and above 50 µM.
In the same order, the values of `COC(=O)N[C@H]1[C@H]2OC[C@]1(CO)O[C@H]2n1ccc(=O)[nH]c1=O` [Compound 37] are above 10 µM and above 50 µM.
As to `Nc1nc2c(ncn2[C@@H]2O[C@@]3(CO)CN[C@@H]2[C@@H]3O)c(=O)[nH]1` [Compound 38], the EC50 in [3] is above 10 µM. For the same molecule, the CC50 at 72 h in the data set “in vitro” is above 50 µM.
On to `Nc1ncnc2c1ncn2[C@@H]1O[C@@]2(COP(=O)(O)OP(=O)(O)OP(=O)(O)O)CO[C@@H]1[C@@H]2O` [Compound 101], for which the IC50 in data set [2] and in [1] (setting [9]) was above 10 µM in each case.
Consider `Nc1nc2c(ncn2[C@@H]2O[C@@]3(COP(=O)(O)OP(=O)(O)OP(=O)(O)O)CO[C@@H]2[C@@H]3O)c(=O)[nH]1` [Compound 103], for which the IC50 was 0.25 to 1 µM in data set [2]; 0.25 to 1 µM in [5]; 0.25 to 1 µM in [1] (setting [9]); below 0.25 µM in data set [6]; 0.25 to 1 µM in data set [7]; 0.25 to 1 µM in [8].
As for `C[C@H](OP(=O)(O)OP(=O)(O)OP(=O)(O)O)[C@@]12CO[C@@H]([C@H](n3ccc(=O)[nH]c3=O)O1)[C@@H]2O` [Compound 104a], the IC50 in data set [2] and in [1] (setting [9]) was above 10 µM in each case.
As for `C[C@@H](OP(=O)(O)OP(=O)(O)OP(=O)(O)O)[C@@]12CO[C@@H]([C@H](n3ccc(=O)[nH]c3=O)O1)[C@@H]2O` [Compound 104b], the IC50 in data set [2] and in data set [1] (setting [9]) was above 10 µM each time.
In the case of `C[C@]12OC[C@](COP(=O)(O)OP(=O)(O)OP(=O)(O)O)(O[C@H]1n1cnc3c(=O)[nH]c(N)nc31)[C@H]2O` [Compound 106], the IC50 in data set [2] is below 0.25 µM; in data set [1] (setting [9]) it was 0.25 to 1 µM.
With `Nc1ccn([C@@H]2O[C@@]3(COP(=O)(O)OP(=O)(O)OP(=O)(O)O)CO[C@@H]2[C@@H]3O)c(=O)n1` [Compound 107], the IC50 in [2] and in data set [1] (setting [9]) was 1 to 10 µM throughout.
As to `O=c1ccn([C@@H]2O[C@@]3(COP(=O)(O)OP(=O)(O)OP(=O)(O)O)CO[C@@H]2[C@@H]3O)c(=O)[nH]1` [Compound 108], the IC50 in data set [2] was 1 to 10 µM; in [1] (setting [9]) it was above 10 µM.
In turn, `[N-]=[N+]=N[C@H]1[C@H]2OC[C@]1(COP(=O)(O)OP(=O)(O)OP(=O)(O)O)O[C@H]2n1ccc(=O)[nH]c1=O` [Compound 401] came in with an IC50 in [2] above 10 µM.
Still for that read-out and setting: under `C[C@H]1O[C@H]2[C@H](n3cnc4c(=O)[nH]c(N)nc43)O[C@]1(COP(=O)(O)OP(=O)(O)OP(=O)(O)O)[C@H]2O` [Compound 426] stands above 10 µM; under `C[C@H]1O[C@H]2[C@H](n3ccc(=O)[nH]c3=O)O[C@]1(COP(=O)(O)OP(=O)(O)OP(=O)(O)O)[C@H]2O` [Compound 427], above 10 µM; under `Nc1nc2c(ncn2[C@@H]2O[C@@]3(COP(=O)(O)OP(=O)(O)OP(=O)(O)O)CN[C@@H]2[C@@H]3O)c(=O)[nH]1` [Compound 570], above 10 µM.
`N[C@H]1[C@H]2OC[C@]1(COP(=O)(O)OP(=O)(O)OP(=O)(O)O)O[C@H]2n1ccc(=O)[nH]c1=O` [Compound 571] displayed an IC50 in data set [2] above 10 µM.
